Laboratory results from the NIST ThermoML archive (doi:10.1016/j.fluid.2012.06.028).
± gives the expanded uncertainty stated by the source.

Test: xn = mol fraction of the nth substance listed
Conditions: Liquid, Vibrating tube method

CCCCCCCCCCCCCC [tetradecane] + CCCCCCCCCC
mass density [kg/m3]
Conditions | 1000 kPa | 2000 kPa | 3000 kPa | 4000 kPa | 5000 kPa | 6000 kPa | 7000 kPa | 8000 kPa | 9000 kPa | 10000 kPa
295 K, x2 = 0.5 | 746.3 ± 0.4 | – | 747.6 ± 0.4 | 748.3 ± 0.4 | 749 ± 0.4 | 749.7 ± 0.4 | – | 751.1 ± 0.4 | 751.7 ± 0.4 | –
295 K, x2 = 0.75 | 739.2 ± 0.4 | 739.9 ± 0.4 | 740.7 ± 0.4 | 741.4 ± 0.4 | 742.1 ± 0.4 | 742.8 ± 0.4 | 743.5 ± 0.4 | 744.2 ± 0.4 | 745 ± 0.4 | 745.7 ± 0.4
295.5 K, x2 = 0.25 | 753.2 ± 0.4 | 753.9 ± 0.4 | 754.6 ± 0.4 | 755.3 ± 0.4 | 756 ± 0.4 | 756.7 ± 0.4 | 757.4 ± 0.4 | 758 ± 0.4 | 758.7 ± 0.4 | 759.4 ± 0.4
